One series has as its system T1, half-holo BLVRB.
T1 construct: His6 (N, cleaved yes); made in house; host or cells: E. coli BL21(DE3), pET-21b
In words: 1H-15N HSQC of half-holo BLVRB with 5-ASA. The conditions noted are these: 0.1 mM half-holo BLVRB, 1 mM 5-ASA, HSQC (Figure S3). The series is classed as binding, human. The procedure: All NMR experiments were performed with the Bruker 800 MHz spectrometer at 25 °C. A total of 0.2 mM ^15N-labeled BLVRB or apo-BLVRB was prepared in buffer (pH 6.5, 50 mM Bis-tris, 50 mM NaCl, and 5% D2O), and their ^1H-^15N heteronuclear single-quantum coherence (HSQC) spectra were recorded in the presence and absence of drug molecules. The 1-dimensional (1D) ^1H spectra to monitor the enzyme reactions were conducted in PBS buffer. The chemical shift perturbation (CSP) data were presented using the square root of (ΔH)^2 + [(ΔN)/6]^2 to normalize the relative effects from the CSPs of ^1H and ^15N [44]. The diffusion-ordered spectroscopy (DOSY) spectra were measured using the ledbpgppr2s, with 80 ms diffusion delay, 2 s relaxation delay, and 32 gradient strength increments. The backbone assignments were referenced from BMRB Entry ID: 27463 for holo BLVRB and Entry ID: 27462 for apo BLVRB to assign the spectra in the presence and absence of the drug.
Figure S3. 5-ASA binding of half-holo BLVRB: (A) The 1H-15N HSQC spectra of 0.1 mM half-holo BLVRB in the absence (black) and presence (red) of 1 mM 5-ASA. (B) Chemical shift diﬀerences between half-holo BLVRB and BLVRB in complex with OSK (black) and 5-ASA (red). (C) NMR ti-tration data for binding to half-holo BLVRB. […]

In series [1] the target is T2, human BLVRB (half-holo BLVRB) (Homo sapiens, UniProt P30043).
T2 construct: His6 (N, cleaved yes); made in house; host or cells: E. coli BL21(DE3), pET-21b
T2 sequence (P30043 1-206): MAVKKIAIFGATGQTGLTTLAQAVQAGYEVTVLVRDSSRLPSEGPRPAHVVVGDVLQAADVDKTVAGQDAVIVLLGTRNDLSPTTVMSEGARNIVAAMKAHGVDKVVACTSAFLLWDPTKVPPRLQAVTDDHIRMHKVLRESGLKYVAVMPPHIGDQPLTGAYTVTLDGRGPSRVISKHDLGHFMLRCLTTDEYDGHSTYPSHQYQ
As to the kind of experiment: Isothermal titration calorimetry (ITC) of drug binding to half-holo BLVRB. The settings on record: 25 °C. How it is done: (§1) The human BLVRB protein was prepared following the previously reported method. Briefly, the N-terminal His6-tagged BLVRB was expressed in the E. coli BL21(DE3) strain using the pET-21b protein expression vector. The transformed E. coli cells were grown in LB and M9 media at 37 °C to express the nonlabeled and isotope-labeled (^15N or ^13C/^15N) BLVRB proteins, respectively. To induce protein expression, 0.5 mM IPTG was added to the cultures when the OD600 reached 0.8, and then the cells were harvested after ~3–4 h. Cells were lysed by sonication in buffer (pH 8.0, 25 mM Tris-HCl, 500 mM NaCl, and 10 mM β-mercaptoethanol). The BLVRB protein was first purified by His-tag affinity column chromatography using the HisTrap HP column (Cytiva). To remove the His-tag, the protein elution was dialyzed in buffer (pH 8.0, 50 mM Tris-HCl, and 1 mM dithiothreitol) overnight at 4 °C, after adding thrombin (~5 units per mg protein). Since thrombin bound to HiTrap-Q HP column at pH 8.0, ion-exchange column chromatography was performed with buffer (pH 8.0, 25 mM Tris-HCl, and 1 mM dithiothreitol), and then the elution was performed with 1.0 M NaCl gradient; BLVRB and thrombin eluted at ~150 and ~300 mM NaCl, respectively. To separate the His6-tagged BLVRB from the completely cleaved BLVRB, the HisTrap HP column was tandemly attached to the next of the HiTrap-Q column. The BLVRB protein was further purified by size exclusion chromatography (SEC) using the HiLoad 16/600 Superdex 75 (Cytiva) with nonbuffered solution (50 mM NaCl and 1 mM dithiothreitol). The protein fractions were concentrated using an ultracentrifugal filter with 10 kDa MWCO (Millipore, Burlington, MA, USA) and then were stored at −70 °C before use. Apo-BLVRB was prepared using the previously reported refolding method, with additional column chromatography steps. Briefly, the purified BLVRB was denatured in buffer (pH 7.5, 25 mM Tris-HCl, 10 mM β-mercaptoethanol, and 6.0 M urea) and then applied to the HisTrap HP column. After washing with buffer (pH 5.0, 25 mM Na-acetate, 10 mM β-mercaptoethanol, and 6.0 M urea), they were eluted with an additional 1.0 M NaCl gradient. After 2-fold dilution with buffer (pH 5.0, 20 mM Na-acetate, 10 mM β-mercaptoethanol, and 6.0 M urea), apo-BLVRB was further purified by cation-exchange column chromatography using the HiTrap-SP column (Cytiva). Protein elution was performed by 1.0 M NaCl gradient in the presence of 6.0 M urea. The protein was refolded by dialysis in buffer (pH 6.5, 50 mM Bis-tris, 150 mM NaCl, and 1 mM DTT). After removing the aggregate (~20%) by centrifuge, it was purified by SEC using the HiLoad 16/600 Superdex 75 with buffer (pH 6.5, 10 mM Bis-tris, 50 mM NaCl, and 1 mM DTT). The apo-BLVRB solution was concentrated and then stored at −70 °C. Although thawing the frozen sample caused ~10% precipitation of apo-BLVRB, the maintenance of the structure was confirmed by ^1H-^15N HSQC spectrum. The concentration was also determined using UV absorption with an extinction coefficient (A280) of 14,440 M^−1⋅cm^−1. The purity was confirmed by SDS-PAGE gel analysis.
The ITC experiment was conducted in buffer (pH 6.5, 50 mM Bis-tris, 50 mM NaCl, and 0.1 mM TCEP) using a Microcal Auto-iTC200 (Malvern Instruments, Malvern, UK) at 25 °C. The calorimetric cell (200 μL) and syringe (40 μL) were loaded with 0.09 mM BLVRB and 1.1 mM drug (OSK or OSA), respectively. The ITC data were analyzed after subtracting the heat from blank injections that were measured under the same conditions but in the absence of BLVRB. Data processing was carried out using the Origin software provided by the manufacturer, where the fittings were performed with a one-site binding model.
A general note: ITC needs no label: the signal is the heat of the interaction.

The target of a further series is T3, apo-BLVRB (Homo sapiens, UniProt P30043).
T3 construct: His6 (N); made in house; host or cells: E. coli BL21(DE3), pET-21b
T3 sequence (P30043 1-206): T2 sequence (P30043 1-206)
In words: NMR 1H-15N HSQC chemical shift perturbation titration of apo-BLVRB. The series is classed as binding. The settings on record: for Kd: Apo-BLVRB from NMR CSP experiment; for binding to apo-BLVRB: HSQC of apo-BLVRB titrated with drug (Figure S4). The procedure:
as §1, with “After 2-fold dilution with buffer (pH 5.0, 20 mM Na-acetate, 10 mM β-mercaptoethanol, and 6.0 M urea), apo-BLVRB was further purified by cation-exchange column chromatography using the HiTrap-SP column (Cytiva). Protein elution was performed by 1.0 M NaCl gradient in the presence of 6.0 M urea. The protein was refolded by dialysis in buffer (pH 6.5, 50 mM Bis-tris, 150 mM NaCl, and 1 mM DTT). After removing the aggregate (~20%) by centrifuge, it was purified by SEC using the HiLoad 16/600 Superdex 75 with buffer (pH 6.5, 10 mM Bis-tris, 50 mM NaCl, and 1 mM DTT). The apo-BLVRB solution was concentrated and then stored at −70 °C. Although thawing the frozen sample caused ~10% precipitation of apo-BLVRB, the maintenance of the structure was confirmed by ^1H-^15N HSQC spectrum.” left out, “The purity was confirmed by SDS-PAGE gel analysis.” left out
(§2) All NMR experiments were performed with the Bruker 800 MHz spectrometer at 25 °C. A total of 0.2 mM ^15N-labeled BLVRB or apo-BLVRB was prepared in buffer (pH 6.5, 50 mM Bis-tris, 50 mM NaCl, and 5% D2O), and their ^1H-^15N heteronuclear single-quantum coherence (HSQC) spectra were recorded in the presence and absence of drug molecules. […] The diffusion-ordered spectroscopy (DOSY) spectra were measured using the ledbpgppr2s, with 80 ms diffusion delay, 2 s relaxation delay, and 32 gradient strength increments. […]

Another series has as its target T4, BLVRB (Homo sapiens, UniProt P30043).
T4 construct: His6 (N, cleaved yes); made in house; host or cells: E. coli BL21(DE3), pET-21b
T4 sequence (P30043 1-206): T2 sequence (P30043 1-206)
In words: BLVRB enzyme activity assay (NADPH absorption at 340 nm, FMN substrate). The series is classed as biochemical. The settings on record: for uncompetitive inhibition constant (Kiu) / Ki: 0.5 µM BLVRB, 100 µM FMN, 100 µM NADPH, PBS, 0.5% DMSO, mixed inhibition model; for Ki: read-out: competitive inhibition constant (Kic); for inhibition pattern (Lineweaver–Burk plot): BLVRB in the presence of NADPH; for maximum velocity (Vm): enzyme parameter of BLVRB from the fit of the data set with this inhibitor. How it is done: Enzyme kinetics were monitored using the absorption of NADPH at 340 nm with the SpectraMax Gemini EM Microplate Reader (Molecular Devices, San Jose, CA, USA). The enzyme reactions were conducted with 0.5 µM BLVRB, 100 µM FMN, and 100 µM NADPH in PBS buffer containing 0.5% DMSO in the presence of various concentrations of inhibitors (OSK and OSA). The initial velocities of the reactions were estimated from data collected over 5 min and were fitted to the Michaelis–Menten equation. The inhibition model and inhibition constants were determined using the in-house Python script of nonlinear least squares regression fitting.

Series [2] has as its system T5, Escherichia coli (E. coli) AzoR.
T5 construct: E. coli DH5α cells were cultured in LB medium to obtain AzoR protein at 37 °C; endogenous in cells; host or cells: E. coli DH5α induced with 2-MHQ; Hitrap-Q anion-exchange fraction
As to the kind of experiment: Cleavage by partially purified AzoR fraction, monitored by 1D 1H NMR. The format is in vitro ADME. The settings on record: incubation with column fraction containing AzoR activity and NAD(P)H. The procedure:
E. coli DH5α cells were cultured in LB medium to obtain AzoR protein at 37 °C. Since various electrophilic quinones increase the mRNA level of the acpD gene-encoding AzoR protein [36], 0.5 mM methylhydroquinone (2-MHQ) was added to the culture when the optical density of the cells at 600 nm (OD600) reached 0.8. The cells were harvested by centrifugation after ~3–4 h. To enrich the AzoR protein, anion-exchange column chromatography using the Hitrap-Q HP column (Cytiva, Marlborough, MA, USA) was performed, in which the column was pre-equilibrated with buffer (pH 8.0, 25 mM Tris-HCl), and then 1.0 M NaCl gradient was applied to elute proteins. The AzoR activity in the elution fractions was measured by the enzyme activity assay using 0.1 mM menadione and 0.1 mM NADH, in which decreasing absorption at 340 nm was measured following the previously reported method. […]
as §2

For series [3] the following is noted: cited from earlier work.
Series [4] has as its target T2, human BLVRB (half-holo BLVRB). Details: method as in PMID 34957824. The settings on record: ITC, 25 °C; cited from earlier work.
In a further series the test system is rats. Details: method as in PMID 2160137. The conditions noted are these: cited from earlier work.

One may read the Kd as the free concentration of one partner at which half of the binding sites on the other are occupied at equilibrium, for simple one-to-one binding.

Like-named read-outs stand apart in the source and are kept apart here.

Take `Nc1ccc(O)c(C(=O)O)c1` [5-ASA, 5-aminosalicylic acid]: the “binding to BLVRB” value in the series with half-holo BLVRB is reported as “reduced significantly”.
In series [1], `O=C(O)c1cc(/N=N/c2ccc(O)c(C(=O)O)c2)ccc1O` [Olsalazine, olsalazine] gave a dissociation constant (Kd) of 150 ± 230 nM, a TΔS of -4.22 ± 0.13 kcal/mol, a ΔG of -9.32 ± 0.09 kcal/mol and a ΔH of -13.54 ± 0.08 kcal/mol. Further, at apo-BLVRB, the dissociation constant Kd came to 9310 ± 2410 nM and the “binding to apo-BLVRB” value is “able to bind to the apo-BLVRB”. Besides, on BLVRB, the “uncompetitive inhibition constant (Kiu)” value was found to be 0.79 ± 0.06 µM, the Ki was found to be 550 ± 40 nM, the “inhibition pattern (Lineweaver–Burk plot)” value is “mixed inhibition pattern” and the “maximum velocity (Vm)” value is on record as 4.71 ± 0.09 µM/min. Moreover, in series [2], the “cleavage by AzoR” value was “cleavage of its diazenyl bond and the formation of 5-ASA”. Moreover, the plasma elimination half-life result in series [3] is on record as “approximately 1 h”.
In the case of `O=C(O)c1cc(/C=C/c2ccc(O)c(C(=O)O)c2)ccc1O` [Olsalkene, (E)-5,5′-(ethene-1,2-diyl)bis(2-hydroxybenzoic acid)], in series [1], the Kd was 140 ± 270 nM, the TΔS is -5.98 ± 0.17 kcal/mol, the ΔG is -9.33 ± 0.11 kcal/mol and the ΔH is -15.31 ± 0.12 kcal/mol. For the same molecule, at apo-BLVRB, the Kd was found to be 11400 ± 2220 nM and the “binding to apo-BLVRB” value is on record as “able to bind to the apo-BLVRB”. At BLVRB, the “uncompetitive inhibition constant (Kiu)” value was 0.61 ± 0.06 µM, the Ki was found to be 560 ± 100 nM, the “inhibition pattern (Lineweaver–Burk plot)” value is “mixed inhibition pattern” and the “maximum velocity (Vm)” value amounted to 4.80 ± 0.16 µM/min. Besides, the “cleavage by AzoR” value in series [2] is “remains intact and is not cleaved by AzoR”.
Turning to `O=C([O-])c1c(Cl)c(Cl)c(Cl)c(Cl)c1-c1c2cc(Br)c(=O)c(Br)c-2oc2c(Br)c([O-])c(Br)cc12.[Na+].[Na+]` [Phloxine B, phloxine B], in series [4], the Kd is 1360 ± 220 nM, the TΔS is 4.12 ± 0.12 kcal/mol, the ΔG is -8.00 ± 0.10 kcal/mol and the ΔH is -3.88 ± 0.06 kcal/mol.
As for `O=C1OC2(c3ccccc31)c1cc(I)c(O)c(I)c1Oc1c2cc(I)c(O)c1I` [erythrosin B], in the series with rats, the “effect of chronic administration” value was “thyroid stimulation”.
